Reference: publication PMC6930503, “Antiviral, Antimicrobial and Antibiofilm Activity of Selenoesters and Selenoanhydrides” (Molecules, 2019)
Converted amounts (≈) assume the structure as drawn.

Tests used:
[1] = system: Candida krusei ATCC 14243; assay: Antifungal disk-diffusion; conditions: Pichia kudriavzevii, ATCC14243, 72 h; for zone of inhibition at 200 µM: read-out: Inhibition Zone Diameter, 200 µM on disk, 72 h; for zone of inhibition at 10000 µM: read-out: Inhibition Zone Diameter, 10 mM on disk, 72 h
Method: (§6) Disk diffusion. The antifungal activity of the selenocompounds against selected pathogenic yeasts were screened, measuring their inhibition zones [49]. Solutions of the selenocompounds were set at two concentrations: 200 µM (from a 10 mM stock solution) and 10 mM. The sterile filter paper discs (diameter (D) 6 mm) impregnated with the solutions (10 µL of solutions) were placed on Saboraud Dextrose Agar (SDA), inoculated with the respective suspensions of yeasts (inocula of 0.5 McFarland’s standard). The solvent (DMSO) served as negative control, and an additional plate was inoculated without disks, to serve as growth control. The inocula were used within 15 min of preparation, the disks were applied within 15 min of inoculating the plates, and incubation started within 15 min of application of the disks (according to EUCAST standards). The plates were then incubated for 72 h, under aerobic conditions, at 37 °C. Inhibition zone diameters generated by the tested compounds (including the diameter of the disc) were measured. All experiments were performed in triplicate.

[2] = system: Candida parapsilosis ATCC 22019; assay: Antifungal disk-diffusion; conditions: Lodderomyces parapsilosis, ATCC22019, 72 h, read-out: Inhibition Zone Diameter
Method: as §6

[3] = system: Candida krusei ATCC 14243; assay: Antifungal broth microdilution MIC; assay type: cell-based; conditions: Pichia kudriavzevii, ATCC14243, read-out: Minimal inhibitory concentration
Method: (§1) This MIC values were calculated by using the broth microdilution method (Table 3).
(§2) Broth microdilution method. […] Determination of the MIC values was performed by using the broth microdilution method, according to EUCAST standards.

[4] = system: Candida albicans ATCC 10231; assay: Antifungal broth microdilution MIC; assay type: cell-based; conditions: ATCC10231, read-out: Minimal inhibitory concentration
Method: as §1, §2

[5] = system: Candida parapsilosis ATCC 22019; assay: Antifungal broth microdilution MIC; assay type: cell-based; conditions: Lodderomyces parapsilosis, ATCC22019, read-out: Minimal inhibitory concentration
Method: as §1, §2

[6] = system: Cryptococcus diffluens ATCC 32059; assay: Antifungal broth microdilution MIC; assay type: cell-based; conditions: Naganishia diffluens, ATCC32059, read-out: Minimal inhibitory concentration
Method: as §1, §2

HSV-2 = assay: Anti-HSV-2 activity by qPCR in infected Vero cells; conditions: for minimal effective concentration: Human alphaherpesvirus 2, Vero, 24 h, read-out: lowest concentration with (significant) antiviral activity against HSV-2, Vero cells infected with HSV-2, MOI 0.01, qPCR after 24 h; for antiviral activity against HSV-2 (in words): Vero cells infected with HSV-2, qPCR; for antiviral activity at x-fold lower concentration than acyclovir: compared with acyclovir
[7] = system: Candida albicans ATCC 10231; assay: Antifungal disk-diffusion; conditions: ATCC10231, 72 h, read-out: Inhibition Zone Diameter
Method: as §6

[8] = system: Candida tropicalis ATCC 13803; assay: Antifungal disk-diffusion; conditions: ATCC13803, 72 h, read-out: Inhibition Zone Diameter
Method: as §6

[9] = system: Candida glabrata ATCC 36909; assay: Antifungal disk-diffusion; conditions: Nakaseomyces glabratus, ATCC36909, 72 h; for zone of inhibition at 200 µM: read-out: Inhibition Zone Diameter, 200 µM on disk, 72 h; for zone of inhibition at 10000 µM: read-out: Inhibition Zone Diameter, 10 mM on disk, 72 h
Method: as §6

S. aureus ATCC 25923 [10] = assay: Biofilm formation assay with crystal violet; assay type: cell-based; conditions: Staphylococcus aureus, ATCC25923, 48 h; for inhibition at 50 µM: compound at 50 μM
Method: (§3) The biofilm-forming ability of S. Typhimurium and S. aureus ATCC strains was studied in 96-well microtiter plates, using Luria-Bertani (LB) broth without salt (S. Typhimurium) or tryptic soy broth TSB (S. aureus) in the presence of selenocompounds. Initially, overnight cultures were diluted to an optical density (OD) of 0.1 at 600 nm and then added to each well, with the exception of the medium control wells and compounds were added individually at ½ MIC. The final volume was 200 μL in each well. Plates were incubated at 30 °C, for 48 h, with gentle agitation (100 rpm). After the incubation period, the medium was discarded, and the plate was washed with tap water, to remove unattached cells. Then, 200 μL of crystal violet (CV; 0.1% [v/v]) was added to the wells and incubated for 15 min at room temperature. CV was removed from the wells, and the plate was washed again with tap water. Then, 200 μL of 70% ethanol was added to each well, and the biofilm formation was determined by measuring the OD at 600 nm, using a FLUOstar Optima plate reader (BMG Labtech, Aylesbury, UK). The antibiofilm effect of selenocompounds was expressed in the percentage (%) decrease in biofilm formation. The assay was repeated a minimum of three times. The results were analyzed by using the t-test and p-values of <0.05 were considered significant.

[11] = MTT cytotoxicity assay on Vero cells; conditions: African green monkey
[12] = system: S. enterica serovar Typhimurium 14028s; assay: Biofilm formation assay with crystal violet; assay type: cell-based, Salmonella enterica serovar Typhimurium; conditions: Salmonella enterica, compound at 50 μM, 48 h
Method: as §3

[13] = system: S. enterica serovar Typhimurium 14028s; assay: Antibiofilm effect in combination with tetracycline; assay type: cell-based, Salmonella enterica serovar Typhimurium; conditions: compound at ½ MIC; for antibiofilm effect in the presence of TET: 1.25 µM of TET; for effect on the antibiofilm activity of TET compared to TET alone: 2.5 µM of TET
Method: (§4) […]; 4, 5, 7, 8 and 9 for S. Typhimurium).
(§5) […]. The effect was determined by two-fold broth microdilution method in 96-well plates, using serial dilutions of TET and CIP. The first four rows contained two-fold dilutions of antibiotics, and combinations of the antibiotics and tested compounds were added into the last four rows. The overnight bacterial cultures were diluted to an OD of 0.1 at 600 nm and then added to each well, in 50 μL LB, without salt or TSB, with the exception of the medium control wells. The plates were then incubated at 30 °C, for 48 h, with gentle agitation (100 rpm), and the biofilm formation was determined by measuring the OD at 600 nm, using a FLUOstar Optima plate reader. The antibiofilm effect of antibiotic alone and in combination with selenocompounds was expressed in the percentage (%) of decrease in biofilm formation. The results were analyzed by using the t-test and p-values of <0.05 were considered significant.

[14] = system: Cryptococcus diffluens ATCC 32059; assay: Antifungal disk-diffusion; conditions: Naganishia diffluens, ATCC32059, 72 h, read-out: Inhibition Zone Diameter
Method: as §6

S. aureus ATCC 25923 [15] = assay: Antibiofilm effect in combination with ciprofloxacin; assay type: cell-based, Staphylococcus aureus; conditions: CIP at 1.6 µM, compound at ½ MIC
Method: as §4, §5

O=C1[Se]C(=O)c2ccccc21 [Compound 1]
zone of inhibition at 200 µM [1]: 11 mm | zone of inhibition at 10000 µM [1]: > 30 mm | zone of inhibition at 10000 µM [2]: 6 mm | MIC [3]: 100 µM (≈ 21.1 µg/mL) | MIC [4]: 50 µM (≈ 10.6 µg/mL) | MIC [5]: > 200 µM | MIC [6]: > 200 µM | minimal effective concentration (HSV-2): 12.5 µM | antiviral activity at concentration x-fold lower than the cytotoxic concentration (IC50 in Vero cells) (HSV-2): 8 fold | zone of inhibition at 200 µM [7]: 14 mm | zone of inhibition at 10000 µM [7]: > 30 mm | zone of inhibition at 200 µM [8]: 3 mm | zone of inhibition at 10000 µM [8]: > 30 mm | zone of inhibition at 200 µM [9]: 2 mm | zone of inhibition at 10000 µM [9]: 13 mm | inhibition at 50 µM (S. aureus ATCC 25923 [10]): > 70% | IC50 at 24 h [11]: > 100 µM

C[Se]C(=O)c1ccc(C(=O)[Se]C)s1 [Compound 2]
antiviral activity against HSV-2 (in words) (HSV-2): did not reduce the number of HSV-2 | inhibition at 50 µM [12]: > 50% | IC50 at 24 h [11]: > 100 µM

C[Se]C(=O)c1cccc(C(=O)[Se]C)n1 [Compound 3]
minimal effective concentration (HSV-2): 10 µM | inhibition at 50 µM [12]: > 50% | IC50 at 24 h [11]: > 100 µM

C[Se]C(=O)c1cccc(C(=O)[Se]C)c1 [Compound 4]
antibiofilm effect in the presence of TET [13]: significantly higher antibiofilm effects | antiviral activity against HSV-2 (in words) (HSV-2): did not reduce the number of HSV-2 | inhibition at 50 µM [12]: 75% | IC50 at 24 h [11]: > 100 µM

C[Se]C(=O)c1ccc(C(=O)[Se]C)cc1 [Compound 5]
effect on the antibiofilm activity of TET compared to TET alone [13]: significantly reduced the activity of the antibiotic | antiviral activity against HSV-2 (in words) (HSV-2): did not reduce the number of HSV-2 | inhibition at 50 µM [12]: 73% | IC50 at 24 h [11]: > 100 µM

NC(=O)C[Se]C(=O)c1ccccc1 [Compound 6]
minimal effective concentration (HSV-2): 25 µM | antiviral activity at concentration x-fold lower than the cytotoxic concentration (IC50 in Vero cells) (HSV-2): 2 fold | zone of inhibition at 10000 µM [9]: < 10 mm | inhibition at 50 µM (S. aureus ATCC 25923 [10]): > 70% | IC50 at 24 h [11]: > 100 µM

O=C(C[Se]C(=O)c1ccccc1)Oc1ccccc1 [Compound 8]
antibiofilm effect in the presence of TET [13]: significantly higher antibiofilm effects | effect on the antibiofilm activity of TET compared to TET alone [13]: significantly reduced the activity of the antibiotic | minimal effective concentration (HSV-2): 12.5 µM | antiviral activity at concentration x-fold lower than the cytotoxic concentration (IC50 in Vero cells) (HSV-2): 8 fold | inhibition at 50 µM (S. aureus ATCC 25923 [10]): > 70% | IC50 at 24 h [11]: > 100 µM

CC(=O)C[Se]C(=O)c1ccc(Cl)cc1 [Compound 9]
zone of inhibition at 200 µM [1]: 19 mm | zone of inhibition at 10000 µM [1]: > 30 mm | zone of inhibition at 200 µM [2]: 4 mm | zone of inhibition at 10000 µM [2]: > 30 mm | antibiofilm effect in the presence of TET [13]: significantly higher antibiofilm effects | effect on the antibiofilm activity of TET compared to TET alone [13]: significantly reduced the activity of the antibiotic | MIC [3]: 50 µM (≈ 13.8 µg/mL) | MIC [4]: > 200 µM | MIC [5]: > 200 µM | MIC [6]: 100 µM (≈ 27.6 µg/mL) | zone of inhibition at 10000 µM [7]: > 30 mm | zone of inhibition at 200 µM [8]: 2 mm | zone of inhibition at 10000 µM [8]: 25 mm | zone of inhibition at 200 µM [9]: 6 mm | zone of inhibition at 10000 µM [9]: > 30 mm | zone of inhibition at 200 µM [14]: 12 mm | zone of inhibition at 10000 µM [14]: 29 mm | IC50 at 24 h [11]: 31 µM

CC(C)(C)C(=O)C[Se]C(=O)c1ccc(Cl)cc1 [Compound 10]
zone of inhibition at 200 µM [1]: 14 mm | zone of inhibition at 10000 µM [1]: > 30 mm | zone of inhibition at 200 µM [2]: 2 mm | zone of inhibition at 10000 µM [2]: > 30 mm | MIC [3]: 50 µM (≈ 15.9 µg/mL) | MIC [4]: > 200 µM | MIC [5]: > 200 µM | MIC [6]: > 200 µM | minimal effective concentration (HSV-2): 5 µM | antiviral activity at concentration x-fold lower than the cytotoxic concentration (IC50 in Vero cells) (HSV-2): 9 fold | antiviral activity at x-fold lower concentration than acyclovir (HSV-2): 8 fold | zone of inhibition at 10000 µM [7]: > 30 mm | zone of inhibition at 10000 µM [8]: 16 mm | zone of inhibition at 10000 µM [9]: 25 mm | inhibition at 10 µM (S. aureus ATCC 25923 [10]; compound at 10 μM): > 70% | IC50 at 24 h [11]: 45 µM

COc1cc(OC)cc(C(=O)[Se]CC(=O)C(C)(C)C)c1 [Compound 11]
zone of inhibition at 10000 µM [1]: 12 mm | zone of inhibition at 200 µM [2]: 14 mm | zone of inhibition at 10000 µM [2]: > 30 mm | MIC [3]: > 200 µM | MIC [4]: > 200 µM | MIC [5]: 100 µM (≈ 34.3 µg/mL) | MIC [6]: 100 µM (≈ 34.3 µg/mL) | minimal effective concentration (HSV-2): 1.25 µM | antiviral activity at concentration x-fold lower than the cytotoxic concentration (IC50 in Vero cells) (HSV-2): 31 fold | antiviral activity at x-fold lower concentration than acyclovir (HSV-2): 4 fold | zone of inhibition at 10000 µM [7]: 19 mm | zone of inhibition at 10000 µM [9]: 18 mm | effect on the antibiofilm activity of CIP (S. aureus ATCC 25923 [15]): significantly increased the activity of CIP | inhibition at 25 µM (S. aureus ATCC 25923 [10]; compound at 25 μM): > 70% | zone of inhibition at 200 µM [14]: 10 mm | zone of inhibition at 10000 µM [14]: 18 mm | IC50 at 24 h [11]: 39 µM

Nc1nc2c(ncn2COCCO)c(=O)[nH]1 [acyclovir, reference compound]
minimal effective concentration (HSV-2): 10 µM | complete inhibition of HSV-2 replication (HSV-2; examined concentrations 1.25–2500 μM): could not inhibit the replication of HSV-2 completely
